The nature of this data set: Stability of solid-state forms. The format is physicochemical. To be noted: B form (hydrate from acetone/water) compared with amorphous form and A and C modifications. An excerpt: Cyclosporins according to the invention may exist in the solid state in amorphous form or in one or more crystalline forms. For example, the compound of Example 2 below exists in amorphous form or in at least three crystalline forms, distinguishable by X-ray diffraction and designated the A, B and C modifications.

`C/C=C/C[C@@H](C)[C@@H](O)[C@H]1C(=O)N[C@@H](CC)C(=O)N(C)CC(=O)N(C)[C@@H](CC(C)C)C(=O)N[C@@H](C(C)C)C(=O)N(C)[C@@H](CC(C)C)C(=O)N[C@@H](C)C(=O)N[C@H](COCCO)C(=O)N(C)[C@@H](CC(C)C)C(=O)N(C)[C@@H](CC(C)C)C(=O)N(C)[C@@H](C(C)C)C(=O)N1C` [Example 2, [O-(2-hydroxyethyl)(D)Ser]^8 -Ciclosporin]: the “stability of crystal form” value is listed as “most stable”.

The record behind these values is US5284826A, “0-hydroxyethyl and acyloxyethyl derivatives of [ser]^8 cyclosporins” (Sandoz Ltd., priority 1989, dated 1994).
